According to paper doi:10.1101/2021.09.30.462449v1 (biorxiv, 2021):

What was measured:
Assay in all cases: biochemical
Conditions in all cases: read-out: % inhibition mean (Z'Lyte)
[1] = biological target: ACVR1B (ALK4) (Homo sapiens, UniProt P36896)
[2] = biological target: BMX (Homo sapiens, UniProt P51813)
[3] = biological target: BRSK1 (SAD1) (Homo sapiens, UniProt Q8TDC3)
[4] = biological target: CAMK2A (CaMKII alpha) (Homo sapiens, UniProt Q9UQM7)
[5] = biological target: CDC42 BPA (MRCKA) (Homo sapiens, UniProt Q5VT25)
[6] = biological target: CHEK2 (CHK2) (Homo sapiens, UniProt O96017)
[7] = biological target: DCAMKL1 (DCLK1) (Homo sapiens, UniProt O15075)
Sequence of DCAMKL1 (DCLK1) (O15075 whole entry): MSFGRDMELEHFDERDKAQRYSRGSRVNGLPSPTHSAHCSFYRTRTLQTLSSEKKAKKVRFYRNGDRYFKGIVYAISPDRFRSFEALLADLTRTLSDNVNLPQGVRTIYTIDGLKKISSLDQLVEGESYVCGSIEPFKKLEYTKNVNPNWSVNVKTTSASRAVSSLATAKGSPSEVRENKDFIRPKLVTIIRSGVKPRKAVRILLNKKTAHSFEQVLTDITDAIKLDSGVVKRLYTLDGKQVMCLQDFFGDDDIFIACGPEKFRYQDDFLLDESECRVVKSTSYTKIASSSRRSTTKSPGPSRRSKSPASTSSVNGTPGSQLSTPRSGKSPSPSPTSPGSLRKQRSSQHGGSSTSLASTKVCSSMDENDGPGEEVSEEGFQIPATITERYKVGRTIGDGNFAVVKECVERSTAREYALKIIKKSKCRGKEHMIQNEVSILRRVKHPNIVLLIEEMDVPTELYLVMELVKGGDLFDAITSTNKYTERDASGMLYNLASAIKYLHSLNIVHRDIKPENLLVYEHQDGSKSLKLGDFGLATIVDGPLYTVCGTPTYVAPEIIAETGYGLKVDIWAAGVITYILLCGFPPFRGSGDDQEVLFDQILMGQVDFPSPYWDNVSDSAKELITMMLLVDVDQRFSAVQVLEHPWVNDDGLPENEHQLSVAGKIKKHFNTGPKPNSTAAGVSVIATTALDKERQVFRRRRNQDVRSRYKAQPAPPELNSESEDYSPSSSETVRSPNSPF

[8] = biological target: EGFR (ErbB1) L858R (Homo sapiens, UniProt P00533, L858R)
[9] = biological target: EGFR (ErbB1) T790M L858R (Homo sapiens, UniProt P00533, L858R/T790M)
[10] = biological target: FLT4 (VEGFR3) (Homo sapiens, UniProt P35916)
[11] = biological target: FYN (Homo sapiens, UniProt P06241)
Sequence of FYN (P06241 whole entry): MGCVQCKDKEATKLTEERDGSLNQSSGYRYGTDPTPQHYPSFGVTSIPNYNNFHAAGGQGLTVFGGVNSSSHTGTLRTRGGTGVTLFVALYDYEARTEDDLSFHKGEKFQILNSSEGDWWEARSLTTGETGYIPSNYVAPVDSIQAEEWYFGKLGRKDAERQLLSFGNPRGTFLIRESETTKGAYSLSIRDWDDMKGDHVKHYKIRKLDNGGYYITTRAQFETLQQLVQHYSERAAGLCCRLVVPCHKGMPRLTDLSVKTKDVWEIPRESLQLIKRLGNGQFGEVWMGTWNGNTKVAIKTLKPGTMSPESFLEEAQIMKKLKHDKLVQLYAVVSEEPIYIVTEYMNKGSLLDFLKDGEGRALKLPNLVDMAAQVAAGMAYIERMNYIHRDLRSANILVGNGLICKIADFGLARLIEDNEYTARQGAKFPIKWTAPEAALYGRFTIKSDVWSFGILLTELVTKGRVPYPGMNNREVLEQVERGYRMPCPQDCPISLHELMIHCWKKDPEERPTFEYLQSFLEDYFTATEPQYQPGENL

[12] = biological target: GRK5 (Homo sapiens, UniProt P34947)
[13] = biological target: JAK1 (Homo sapiens, UniProt P23458)
[14] = biological target: KIT V559D V654A (Homo sapiens, UniProt P10721, V559D/V654A)
Sequence of KIT V559D V654A (P10721 whole entry V559D/V654A): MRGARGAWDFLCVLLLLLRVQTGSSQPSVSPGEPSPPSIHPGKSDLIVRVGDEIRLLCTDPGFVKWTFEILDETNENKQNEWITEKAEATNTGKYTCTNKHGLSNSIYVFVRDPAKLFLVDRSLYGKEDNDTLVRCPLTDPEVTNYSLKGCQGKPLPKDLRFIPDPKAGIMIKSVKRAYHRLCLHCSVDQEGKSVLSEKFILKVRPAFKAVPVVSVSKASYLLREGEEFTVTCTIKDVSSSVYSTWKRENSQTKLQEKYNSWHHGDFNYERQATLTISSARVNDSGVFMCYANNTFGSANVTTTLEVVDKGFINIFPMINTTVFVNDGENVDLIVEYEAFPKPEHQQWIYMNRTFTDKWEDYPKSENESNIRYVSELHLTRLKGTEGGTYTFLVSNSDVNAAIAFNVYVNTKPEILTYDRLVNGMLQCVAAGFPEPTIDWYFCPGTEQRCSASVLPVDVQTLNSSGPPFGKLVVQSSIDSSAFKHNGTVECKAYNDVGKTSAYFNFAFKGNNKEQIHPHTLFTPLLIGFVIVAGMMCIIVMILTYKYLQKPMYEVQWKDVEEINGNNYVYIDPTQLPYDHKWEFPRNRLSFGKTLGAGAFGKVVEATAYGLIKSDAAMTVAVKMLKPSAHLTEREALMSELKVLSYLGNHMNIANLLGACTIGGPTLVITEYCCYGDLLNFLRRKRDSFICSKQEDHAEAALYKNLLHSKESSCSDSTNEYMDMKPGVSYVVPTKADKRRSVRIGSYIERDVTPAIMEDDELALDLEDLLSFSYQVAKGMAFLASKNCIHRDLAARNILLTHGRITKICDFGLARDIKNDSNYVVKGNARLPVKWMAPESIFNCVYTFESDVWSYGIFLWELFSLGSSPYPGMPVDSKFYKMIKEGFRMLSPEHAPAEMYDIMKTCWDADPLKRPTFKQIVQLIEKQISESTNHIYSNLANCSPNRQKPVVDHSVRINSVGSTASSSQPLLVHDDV

[15] = biological target: LYN A (Homo sapiens, UniProt P07948)
Sequence of LYN A (P07948 whole entry): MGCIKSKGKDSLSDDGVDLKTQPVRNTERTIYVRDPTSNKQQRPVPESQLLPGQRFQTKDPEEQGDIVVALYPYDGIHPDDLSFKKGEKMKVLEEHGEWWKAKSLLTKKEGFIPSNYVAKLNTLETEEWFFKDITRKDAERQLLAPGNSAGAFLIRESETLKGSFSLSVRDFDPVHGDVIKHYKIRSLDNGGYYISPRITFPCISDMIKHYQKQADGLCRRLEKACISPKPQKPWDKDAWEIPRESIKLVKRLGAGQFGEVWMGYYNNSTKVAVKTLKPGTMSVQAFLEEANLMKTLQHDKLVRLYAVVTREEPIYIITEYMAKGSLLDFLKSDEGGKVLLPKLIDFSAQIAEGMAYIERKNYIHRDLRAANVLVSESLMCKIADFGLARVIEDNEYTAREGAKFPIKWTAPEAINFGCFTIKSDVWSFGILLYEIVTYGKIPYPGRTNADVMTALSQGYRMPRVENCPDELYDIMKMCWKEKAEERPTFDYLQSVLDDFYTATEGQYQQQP

[16] = biological target: MAP4K4 (HGK) (Homo sapiens, UniProt O95819)
[17] = biological target: MAPK13 (p38 delta) (Homo sapiens, UniProt O15264)
[18] = biological target: MARK4 (Homo sapiens, UniProt Q96L34)
Sequence of MARK4 (Q96L34 whole entry): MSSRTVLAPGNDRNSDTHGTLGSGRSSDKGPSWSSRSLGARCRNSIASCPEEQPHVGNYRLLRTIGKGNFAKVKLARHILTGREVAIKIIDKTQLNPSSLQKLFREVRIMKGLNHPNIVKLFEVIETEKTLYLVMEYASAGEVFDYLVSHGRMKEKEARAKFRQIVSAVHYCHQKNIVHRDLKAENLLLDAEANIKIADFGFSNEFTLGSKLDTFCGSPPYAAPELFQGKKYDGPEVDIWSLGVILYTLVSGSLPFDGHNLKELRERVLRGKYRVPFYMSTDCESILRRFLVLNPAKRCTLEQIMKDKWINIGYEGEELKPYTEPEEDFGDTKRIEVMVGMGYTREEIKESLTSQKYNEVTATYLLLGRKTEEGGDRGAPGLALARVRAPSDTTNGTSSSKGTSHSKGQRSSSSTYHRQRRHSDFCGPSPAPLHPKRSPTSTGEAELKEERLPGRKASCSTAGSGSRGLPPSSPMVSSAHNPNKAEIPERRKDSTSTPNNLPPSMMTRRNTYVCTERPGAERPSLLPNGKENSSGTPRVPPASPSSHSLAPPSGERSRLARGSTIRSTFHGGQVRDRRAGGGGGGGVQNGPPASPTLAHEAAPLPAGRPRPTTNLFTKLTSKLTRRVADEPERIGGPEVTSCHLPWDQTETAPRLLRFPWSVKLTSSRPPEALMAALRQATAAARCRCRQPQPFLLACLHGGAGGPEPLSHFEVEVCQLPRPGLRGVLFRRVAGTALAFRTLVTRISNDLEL

[19] = biological target: NEK4 (Homo sapiens, UniProt P51957)
[20] = biological target: PAK1 (Homo sapiens, UniProt Q13153)
Sequence of PAK1 (Q13153 whole entry): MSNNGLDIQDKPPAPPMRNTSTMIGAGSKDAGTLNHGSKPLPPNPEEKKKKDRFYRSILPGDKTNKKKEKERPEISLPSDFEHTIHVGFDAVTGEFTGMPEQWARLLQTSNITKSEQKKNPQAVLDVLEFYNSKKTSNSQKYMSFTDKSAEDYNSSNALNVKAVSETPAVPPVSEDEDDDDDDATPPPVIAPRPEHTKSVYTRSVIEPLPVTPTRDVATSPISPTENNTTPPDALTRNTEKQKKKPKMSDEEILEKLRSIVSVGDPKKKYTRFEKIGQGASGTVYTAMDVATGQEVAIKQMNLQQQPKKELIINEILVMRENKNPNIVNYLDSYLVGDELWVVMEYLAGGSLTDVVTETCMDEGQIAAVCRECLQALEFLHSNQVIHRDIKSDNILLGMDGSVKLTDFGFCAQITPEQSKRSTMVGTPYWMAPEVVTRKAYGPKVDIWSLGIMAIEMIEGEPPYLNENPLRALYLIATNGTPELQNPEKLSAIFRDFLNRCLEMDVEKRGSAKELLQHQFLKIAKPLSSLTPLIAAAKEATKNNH

[21] = biological target: PEAK1 (Homo sapiens, UniProt Q9H792)
[22] = biological target: PRKCG (PKC gamma) (Homo sapiens, UniProt P05129)
[23] = biological target: PTK2 (FAK) (Homo sapiens, UniProt Q05397)
[24] = biological target: ROCK1 (Homo sapiens, UniProt Q13464)
[25] = biological target: RPS6KA3 (RSK2) (Homo sapiens, UniProt P51812)
[26] = biological target: SRMS (Srm) (Homo sapiens, UniProt Q9H3Y6)
[27] = biological target: STK24 (MST3) (Homo sapiens, UniProt Q9Y6E0)
[28] = biological target: STK3 (MST2) (Homo sapiens, UniProt Q13188)

Sequence of ACVR1B (ALK4) (P36896 whole entry): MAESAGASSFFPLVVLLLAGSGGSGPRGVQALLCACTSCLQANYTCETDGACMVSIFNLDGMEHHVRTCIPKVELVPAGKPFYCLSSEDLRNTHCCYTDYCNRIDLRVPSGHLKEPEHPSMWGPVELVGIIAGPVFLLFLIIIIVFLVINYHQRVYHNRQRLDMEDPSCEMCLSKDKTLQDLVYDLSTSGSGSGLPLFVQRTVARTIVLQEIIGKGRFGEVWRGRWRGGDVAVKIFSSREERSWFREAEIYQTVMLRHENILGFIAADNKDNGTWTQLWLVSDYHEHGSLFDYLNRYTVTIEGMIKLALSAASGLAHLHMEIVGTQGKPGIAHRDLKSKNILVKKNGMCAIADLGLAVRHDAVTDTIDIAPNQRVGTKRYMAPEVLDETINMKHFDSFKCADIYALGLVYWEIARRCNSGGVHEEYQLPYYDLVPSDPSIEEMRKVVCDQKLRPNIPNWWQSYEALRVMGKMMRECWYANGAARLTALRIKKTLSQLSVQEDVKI
Sequence of CAMK2A (CaMKII alpha) (Q9UQM7 whole entry): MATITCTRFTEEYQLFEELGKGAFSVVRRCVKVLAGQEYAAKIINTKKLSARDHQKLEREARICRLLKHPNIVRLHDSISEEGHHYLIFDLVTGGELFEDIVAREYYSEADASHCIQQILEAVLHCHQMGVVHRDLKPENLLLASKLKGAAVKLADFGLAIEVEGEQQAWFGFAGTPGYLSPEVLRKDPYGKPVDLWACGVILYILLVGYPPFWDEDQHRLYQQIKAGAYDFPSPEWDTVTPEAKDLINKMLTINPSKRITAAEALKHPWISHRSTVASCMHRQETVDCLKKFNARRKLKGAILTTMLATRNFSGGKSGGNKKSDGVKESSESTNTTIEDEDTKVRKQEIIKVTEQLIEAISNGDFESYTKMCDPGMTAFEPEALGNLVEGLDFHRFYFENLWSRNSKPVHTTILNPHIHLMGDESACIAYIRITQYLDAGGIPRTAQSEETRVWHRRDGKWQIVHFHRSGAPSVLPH

## COc1ccc2nc3cc(Cl)ccc3c(Nc3cc(CN4CCCC4)c(O)c(CN4CCCC4)c3)c2n1 [Pyronaridine, 4-[(7-Chloro-2-methoxybenzo[b][1,5]naphthyridin-10-yl)amino]-2,6-bis(1-pyrrolidinylmethyl)phenol phosphate (1:4)]
[1]
  inhibition at 1 µM: -1%
[2]
  inhibition at 1 µM: 11%
[3]
  inhibition at 1 µM: 2%
[4]
  inhibition at 1 µM: 4%
[5]
  inhibition at 1 µM: 2%
[6]
  inhibition at 1 µM: 0%
[7]
  inhibition at 1 µM: 0%
[8]
  inhibition at 1 µM: 5%
[9]
  inhibition at 1 µM: 5%
[10]
  inhibition at 1 µM: 3%
[11]
  inhibition at 1 µM: 2%
[12]
  inhibition at 1 µM: 10%
[13]
  inhibition at 1 µM: 0%
[14]
  inhibition at 1 µM: -1%
[15]
  inhibition at 1 µM: -2%
[16]
  inhibition at 1 µM: 1%
[17]
  inhibition at 1 µM: 5%
[18]
  inhibition at 1 µM: -4%
[19]
  inhibition at 1 µM: 4%
[20]
  inhibition at 1 µM: 6%
[21]
  inhibition at 1 µM: 1%
[22]
  inhibition at 1 µM: -4%
[23]
  inhibition at 1 µM: 2%
[24]
  inhibition at 1 µM: 2%
[25]
  inhibition at 1 µM: 10%
[26]
  inhibition at 1 µM: 2%
[27]
  inhibition at 1 µM: 4%
[28]
  inhibition at 1 µM: -2%
